# Source: PubChem BioAssay AID463206 (Broad Institute, 2010)
# Active and inactive are the calls of the source.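 The calls were made as follows: active = caspase luminescence falls with dose and the half-maximal concentration AC50 from the fitted curve is at or below a set limit; inconclusive = flat fit at 30 to 70% signal loss, or invalid fit; inactive = AC50 above the limit, or signal rises instead.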
# Tested on: INS-1E cytokine-induced caspase-3/7, Caspase-Glo luminescence, 48 h
# Assay: inhibitors of cytokine-induced caspase-3/7 activity, dose response, orthogonal assay for beta-cell apoptosis protection project, INS-1E rat cells, luminescence (AID 463206)
row,Compound,AC50
1,O=C(Oc1c(CN2CCOCC2)cc(Cl)c2cccnc12)c1ccc(F)cc1,> 26 µM (inactive)
2,C#CCOCCOCCOCCNc1nc(N2CCN(C(=O)CCCCCCCCCCNC(=O)Cn3cc(CCCCCN)nn3)CC2)nc(N2CCN(C(=O)CCCCCCCCCCNC(=O)[C@H]([C@@H](C)CC)n3cc(CCCCN=C(N)N)nn3)CC2)n1,> 26 µM (inactive)
3,Fc1ccc(C[n+]2c(-c3ccccc3)cc(-c3ccccc3)cc2-c2ccccc2)cc1,> 26 µM (inactive)
4,COc1ccc(/C=N/Nc2cc(C)nc(-n3nc(C)cc3C)n2)c(OC)c1,> 26 µM (inactive)
5,COc1ccc(C)cc1Nc1n[n+](-c2ccccc2)c(-c2ccc(N(C)C)cc2)s1,> 26 µM (inactive)
6,Cc1ncc(CO)c(/C=N/NC(=O)c2cc3c(s2)CCCC3)c1O,> 26 µM (inactive)
7,Cc1nc(C)c(C(=O)N/N=C/c2cc(Br)ccc2O)s1,> 26 µM (inactive)
8,OCc1ccc(O)c2ncccc12,> 26 µM (inactive)
9,O=C(CSc1nnc(Cn2nnc3ccccc32)o1)N(Cc1ccc(Cl)cc1)c1ccccc1,> 26 µM (inactive)
10,Cn1nc(C(C)(C)C)cc1C(=O)NCc1cc(F)cc2c1OCOC2,> 26 µM (inactive)
11,Cc1cc(C)n(-c2nc3ccccc3c(=O)n2OCC#N)n1,> 26 µM (inactive)
12,N#Cc1c(Cl)nsc1NC(=O)c1ccccc1,> 26 µM (inactive)
13,Cc1ccc(Nc2c(-c3ccccn3)nc3cccc(C)n23)cc1,> 26 µM (inactive)
14,CCCOc1ccc(C(=O)C(CN2CCOCC2)c2ccccc2)cc1 (stereo unspecified),> 12 µM (inactive)
15,CCOc1ccc(/C=N/NC(=O)c2[nH]ncc2Br)c(O)c1,> 26 µM (inactive)
16,CCCCCCCCn1ccc(=N)cc1,> 26 µM (inactive)
17,COc1cccc(/C=N/Nc2cc(N3CCOCC3)ncn2)c1O,> 26 µM (inactive)
18,CC(=O)c1c(C)[nH]c(C(=O)OCC(=O)Nc2ccc(C)cc2[N+](=O)[O-])c1C,> 26 µM (inactive)
19,O=C(Nc1nc2ccccc2[nH]1)c1ccccc1F,> 26 µM (inactive)
20,O=C(Nc1ccc(Cl)cc1)Nc1nnc(-c2ccncc2)s1,> 26 µM (inactive)
21,Cc1ccc(C[n+]2cccc(-c3ccccc3)c2)c(C)c1,> 26 µM (inactive)
22,COc1cccc(/C=N/Nc2nc(Nc3ccccc3)nc(-n3nc(C)cc3C)n2)c1O,> 26 µM (inactive)
23,O=C(NCc1cccnc1)C(=O)Nc1nc(C23CC4CC(CC(C4)C2)C3)cs1,> 26 µM (inactive)

row,Compound,AC50
1,COc1ccc(-c2cn(Cc3ccc(C(=O)c4ccccc4)cc3)nn2)cc1,> 26 µM (inactive)
2,CC[C@]1(c2ccccc2OC)ON(c2ccccc2C(F)(F)F)C1=O,> 26 µM (inactive)
3,CC1CCC(C(C)C)C(OC(=O)Cn2c(-c3ccccc3)[n+](C)c3ccccc32)C1 (stereo unspecified),> 26 µM (inactive)
4,CCC(=O)NC(c1ccc(Cl)cc1Cl)c1ccc2cccnc2c1O (stereo unspecified),> 12 µM (inactive)
5,CCC(=O)NC(c1cc(Cl)c2cccnc2c1O)C(C)C (stereo unspecified),> 26 µM (inactive)
6,CN(C)c1nc(N/N=C/c2ccccc2O)nc(Nc2ccc(F)cc2)n1,> 26 µM (inactive)
7,Cc1ccc(-c2cc(-c3ccccc3)cc(-c3ccccc3)[n+]2-c2ccccc2)cc1,> 26 µM (inactive)
8,COc1ccc(-n2c(-c3ccc(Br)cc3)c[n+]3c2CCCCC3)cc1,> 26 µM (inactive)
9,C=CCN1C(=O)N/C(=C/c2ccc(N3CCOCC3)o2)C1=O,> 12 µM (inactive)
10,C#CCN(C(=O)c1cc(COc2cccc(C(F)(F)F)c2)on1)C1CCCCC1,> 26 µM (inactive)
11,Cc1cc(C)n(-c2nc(Nc3ccccc3C(F)(F)F)nc(-n3nc(C)cc3C)n2)n1,> 26 µM (inactive)
12,O=C(N/N=C/c1ccc([N+](=O)[O-])o1)c1ccc(O)cc1,> 26 µM (inactive)
13,OC(CNCCC1C=Nc2ccccc21)Cn1c2ccc(Cl)cc2c2cc(Cl)ccc21 (stereo unspecified),> 26 µM (inactive)
14,Cc1ccc(C2C(C=Nc3c(C)n(C)n(-c4ccccc4)c3=O)=C(c3ccccc3)Oc3ccccc32)cc1 (stereo unspecified),> 26 µM (inactive)
15,C/C(=N\NC(=O)C(C)Oc1ccc([N+](=O)[O-])cc1)c1ccccn1 (stereo unspecified),> 26 µM (inactive)
16,C#CCOCCOCCOCCNc1nc(N2CCN(C(=O)CCCCCCCCCCNC(=O)[C@H](CCCCN)n3cc(C[C@@H](C)CC)nn3)CC2)nc(N2CCN(C(=O)CCCCCCCCCCNC(=O)[C@@H]([C@H](C)O)n3cc(C)nn3)CC2)n1,> 26 µM (inactive)
17,O=C(CNc1ccc(F)cc1)N/N=C/c1c(O)ccc2ccccc12,> 26 µM (inactive)
18,O=[N+]([O-])c1ccc(O)c(-c2cc(C(F)(F)F)nc(-c3ccccc3)n2)c1,> 26 µM (inactive)
19,Nc1c(C(=O)Nc2ccc3c(c2)OCCO3)nnn1Cc1ccccc1Cl,> 26 µM (inactive)
20,COc1cccc(/C=N/NC(=O)c2c(C)nc3ccc(Br)cn23)c1O,> 26 µM (inactive)
21,O=C(N/N=C/c1cc(Br)c(O)c(Br)c1O)c1ccc2c(c1)OCCO2,> 26 µM (inactive)
22,O=C(COc1ccc(Br)cc1)N1CCN(Cc2c[nH]c3ccccc23)CC1,> 26 µM (inactive)
23,Nc1c(C(=O)Nc2ccc(S(=O)(=O)N3CCCC3)cc2)sc2nc3ccc(OC(F)(F)F)cc3cc12,> 26 µM (inactive)

row,Compound,AC50
1,Cc1[nH]c2c(ccc3ccccc32)c1C1C(CCN)C1(C)C (stereo unspecified),> 26 µM (inactive)
2,CCOc1ccc(C(=O)c2cc([N+](=O)[O-])ccc2N2CCOCC2)cc1,0.83 µM
3,CC(=O)c1cn(CCOc2cc(C)ccc2C)c2ccccc12,> 26 µM (inactive)
4,CC(O)CNc1nc2sc3c(c2c(=O)n1Cc1ccco1)CCCCC3 (stereo unspecified),> 12 µM (inactive)
5,CC1=NOC(=O)/C1=C/c1ccc(-c2ccc(Cl)cc2)o1,> 26 µM (inactive)
6,CC1CC(C)CN(S(=O)(=O)c2ccc(C(=O)NCCCn3ccnc3)cc2)C1 (stereo unspecified),> 26 µM (inactive)
7,N#C/C(=C\c1ccc([N+](=O)[O-])o1)c1nc2ccccc2[nH]1,> 26 µM (inactive)
8,O=C(CNC(=O)c1ccccc1O)N/N=C/c1cc(Br)ccc1OC(=O)/C=C/c1ccco1,> 26 µM (inactive)
9,C/C(=N/Nc1nc(-c2ccccc2)cc(-c2ccc(F)cc2)n1)c1cccc(N)c1,> 26 µM (inactive)
10,Oc1ccc(-c2n[nH]c(C(F)(F)F)c2-c2ccccc2)c(O)c1,> 26 µM (inactive)
11,Cc1ccc(NC(=O)C2CCN(S(=O)(=O)c3ccc4c(c3)NC(=O)C(C)S4)CC2)cc1Cl (stereo unspecified),> 26 µM (inactive)
12,COc1ccc(C(=O)/C(C#N)=N/Nc2ccc([N+](=O)[O-])cc2)cc1,> 26 µM (inactive)
13,CCn1c(C)nc2cc(C(=O)N/N=C/c3cccc(O)c3O)ccc21,> 26 µM (inactive)
14,Oc1c(C(Nc2cccc(C(F)(F)F)c2)c2ccncc2)ccc2cccnc12 (stereo unspecified),> 26 µM (inactive)
15,C/C(=N\NC(=O)C(=O)Nc1cccc(Cl)c1)c1ccncc1,> 26 µM (inactive)
16,c1ccc(N2CCN(CC3CCCCC3)CC2)cc1,> 26 µM (inactive)
17,O=C1C(Cl)=C(Nc2ccc3cn[nH]c3c2)C(=O)c2ccccc21,> 26 µM (inactive)
18,COc1ccc(-c2nc3ccc(C)cn3c2NCc2ccccc2)cc1SC1CCCCC1,> 26 µM (inactive)
19,Clc1ccc(-c2[nH]ncc2N=Nc2ccccc2)cc1,> 26 µM (inactive)
20,Nc1ccc(N2CCCCC2)cc1N1CCCCC1,> 26 µM (inactive)
21,Cc1nn(-c2ccccc2)c(C)c1NC(=O)COc1ccc(Br)cc1Cl,> 26 µM (inactive)
22,CCOC(=O)c1c(CSc2nc(C)cc(C)c2C#N)n(C)c2cc(Br)c(OC(C)=O)cc12,> 26 µM (inactive)
23,Cc1ccc2nc(-c3ccccn3)c(NC3CCCC3)n2c1,> 12 µM (inactive)

row,Compound,AC50
1,Cc1ccc(-c2nn(-c3ccccc3)cc2/C=N/NC(=O)c2ccc3c(c2)OCO3)cc1,> 26 µM (inactive)
2,Cc1cc(C)n(-c2nc(NC(C)(C)C)nc(NC(C)(C)C)n2)n1,> 26 µM (inactive)
3,Cc1nc2ccccc2nc1N/N=C/c1ccc(O)cc1O,> 26 µM (inactive)
4,Cc1occc1C(=O)N/N=C/c1ccc2c(c1)OCO2,> 26 µM (inactive)
5,Cc1cc2nc(NCCCO)n(CC(=O)c3cc(C(C)(C)C)c(O)c(C(C)(C)C)c3)c2cc1C,> 26 µM (inactive)
6,C=CCC1(CC=C)CCCN1C(=O)c1cc(COc2ccc(C)nc2)on1,> 26 µM (inactive)
7,Cc1cc(/C=C2/SC(=S)N(c3ccc([N+](=O)[O-])cc3)C2=O)c(C)n1-c1cccnc1,> 26 µM (inactive)
8,CCOC(=O)c1cnc(-n2nc(C)cc2C)nc1NC1CCCC1,> 26 µM (inactive)
9,O=C(N/N=C/c1ccccc1O)c1ccc2c(c1)OCO2,> 26 µM (inactive)
10,O=C(CC(O)(C(F)(F)F)C(F)(F)F)Nc1ccc(Cl)c(Cl)c1,> 26 µM (inactive)
11,Cc1ccc(-c2csc(NC(=O)c3c(C)noc3C)n2)s1,> 26 µM (inactive)
12,CC[C@H](C)Cc1cn([C@@H](CCCCNC(=O)OC(C)(C)C)C(=O)NCCCCCCCCCCC(=O)N2CCN(C(=O)OC(C)(C)C)CC2)nn1,> 26 µM (inactive)
13,CCCC(=O)NC(c1ccccc1OC)c1ccc2cccnc2c1O (stereo unspecified),> 26 µM (inactive)
14,CN(C)S(=O)(=O)c1ccc(Nc2nc(C3CC3)nc3c2nnn3Cc2ccccc2Cl)cc1,> 26 µM (inactive)
15,Cc1ccccc1CS(=O)(=O)c1nnc([C@H](Cc2ccccc2)NC(=O)OC(C)(C)C)o1,> 26 µM (inactive)
16,O=[N+]([O-])/C=C/c1ccc2c(ccn2Cc2ccccc2)c1,> 26 µM (inactive)
17,Cc1cc(N2CCN(C)CC2)ccc1NC(=O)c1c2c(nc3ccccc13)CCN(Cc1ccccc1)C2,14.7 µM
18,O=[N+]([O-])c1cccc(-c2cn3nc(-c4ccccc4)c(-c4ccccc4)nc3n2)c1,> 26 µM (inactive)
19,Cc1ccc(NC2=C/C(=N\S(=O)(=O)c3cccs3)c3ccccc3C2=O)c(C)c1,> 26 µM (inactive)
20,COc1ccccc1-n1c(=O)oc2ccc(Cl)cc2c1=O,> 26 µM (inactive)
21,c1ccc(CSc2ccc(-c3ccccn3)nn2)cc1,> 26 µM (inactive)
22,C[C@H](CO)N1C[C@H](C)[C@@H](CN(C)C(=O)NC2CCCCC2)Oc2c(NC(=O)Nc3ccc(C(F)(F)F)cc3)cccc2C1=O,> 26 µM (inactive)
